From PubChem BioAssay (NCI)
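The concentration for 50% growth inhibition is given as GI50. TGI: total growth inhibition.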

Assays:
Assay in all cases: growth of human tumour cells (NCI), 384-well format
UACC-257 melanoma = system: UACC-257 melanoma
ACHN renal = system: ACHN renal
M14 melanoma = system: M14 melanoma
CCRF-CEM leukemia = system: CCRF-CEM leukemia
OVCAR-8 ovarian = system: OVCAR-8 ovarian
786-0 renal = system: 786-0 renal
NCI-H460 NSCLC = system: NCI-H460 NSCLC
SF-539 CNS = system: SF-539 CNS
NCI/ADR-RES ovarian = system: NCI/ADR-RES ovarian
HOP-92 NSCLC = system: HOP-92 NSCLC
MCF7 breast = system: MCF7 breast
HL-60(TB) leukemia = system: HL-60(TB) leukemia
NCI-H322M lung = system: NCI-H322M lung
BT-549 breast = system: BT-549 breast
EKVX NSCLC = system: EKVX NSCLC
A549 NSCLC = system: A549 NSCLC
PC-3 prostate = system: PC-3 prostate
SW-620 colon = system: SW-620 colon
HCT-15 colon = system: HCT-15 colon
A498 renal = system: A498 renal
K-562 leukemia = system: K-562 leukemia
MALME-3M melanoma = system: MALME-3M melanoma
SN12C renal = system: SN12C renal
OVCAR-3 ovarian = system: OVCAR-3 ovarian
SNB-19 CNS = system: SNB-19 CNS
UACC-62 melanoma = system: UACC-62 melanoma
HT29 colon = system: HT29 colon
SF-268 CNS = system: SF-268 CNS
IGROV1 ovarian = system: IGROV1 ovarian
SK-MEL-28 melanoma = system: SK-MEL-28 melanoma
NCI-H23 lung = system: NCI-H23 lung
MDA-MB-468 breast = system: MDA-MB-468 breast
RXF 393 renal = system: RXF 393 renal
OVCAR-5 ovarian = system: OVCAR-5 ovarian
OVCAR-4 ovarian = system: OVCAR-4 ovarian
MOLT-4 leukemia = system: MOLT-4 leukemia
RPMI-8226 leukemia = system: RPMI-8226 leukemia
SNB-75 CNS = system: SNB-75 CNS
HS 578T breast = system: HS 578T breast
T-47D breast = system: T-47D breast
UO-31 renal = system: UO-31 renal
DU-145 prostate = system: DU-145 prostate
COLO 205 colon = system: COLO 205 colon
SK-OV-3 ovarian = system: SK-OV-3 ovarian
HOP-62 NSCLC = system: HOP-62 NSCLC
NCI-H226 lung = system: NCI-H226 lung
CAKI-1 renal = system: CAKI-1 renal
SK-MEL-5 melanoma = system: SK-MEL-5 melanoma
LOX IMVI melanoma = system: LOX IMVI melanoma
MDA-MB-231 breast = system: MDA-MB-231 breast
HCC-2998 colon = system: HCC-2998 colon
MDA-MB-435 melanoma = system: MDA-MB-435 melanoma
SR leukemia = system: SR leukemia
NCI-H522 lung = system: NCI-H522 lung
SF-295 CNS = system: SF-295 CNS
KM12 colon = system: KM12 colon
TK-10 renal = system: TK-10 renal

Cc1cccc(N(C)C(=O)[C@@H]2[C@H](O)CCN2c2nc(C)cc(C(F)(F)F)c2C#N)c1
GI50 (UACC-257 melanoma): 35.3 µM
TGI (UACC-257 melanoma): 76.6 µM
GI50 (ACHN renal): 31 µM
TGI (ACHN renal): > 100 µM
GI50 (M14 melanoma): 43.7 µM
TGI (M14 melanoma): > 100 µM
GI50 (CCRF-CEM leukemia): 19.4 µM
TGI (CCRF-CEM leukemia): 36 µM
GI50 (OVCAR-8 ovarian): 32.9 µM
TGI (OVCAR-8 ovarian): > 100 µM
GI50 ([…]-0 renal): 33.3 µM
TGI (786-0 renal): > 100 µM
GI50 (NCI-H460 NSCLC): 30.2 µM
TGI (NCI-H460 NSCLC): 87 µM
GI50 (SF-539 CNS): 37.2 µM
TGI (SF-539 CNS): > 100 µM
GI50 (NCI/ADR-RES ovarian): 23.5 µM
TGI (NCI/ADR-RES ovarian): 63.8 µM
GI50 (HOP-92 NSCLC): 22.9 µM
TGI (HOP-92 NSCLC): 61 µM
GI50 (MCF7 breast): 27.9 µM
TGI (MCF7 breast): 71.6 µM
GI50 (HL-60(TB) leukemia): 19.4 µM
TGI (HL-60(TB) leukemia): 33.8 µM
GI50 (NCI-H322M lung): 36.4 µM
TGI (NCI-H322M lung): > 100 µM
GI50 (BT-549 breast): 29.4 µM
TGI (BT-549 breast): 65.4 µM
GI50 (EKVX NSCLC): 24.4 µM
TGI (EKVX NSCLC): 58.1 µM
GI50 (A549 NSCLC): 26.9 µM
TGI (A549 NSCLC): > 100 µM
GI50 (PC-3 prostate): 24.5 µM
TGI (PC-3 prostate): 65.3 µM
GI50 (SW-620 colon): 53.3 µM
TGI (SW-620 colon): > 100 µM
GI50 (HCT-15 colon): 32 µM
TGI (HCT-15 colon): > 100 µM
GI50 (A498 renal): 28.3 µM
TGI (A498 renal): 96.1 µM
GI50 (K-562 leukemia): 33.1 µM
TGI (K-562 leukemia): > 100 µM
GI50 (MALME-3M melanoma): 22 µM
TGI (MALME-3M melanoma): 66.7 µM
GI50 (SN12C renal): 30.6 µM
TGI (SN12C renal): > 100 µM
GI50 (OVCAR-3 ovarian): 20.1 µM
TGI (OVCAR-3 ovarian): 43.5 µM
GI50 (SNB-19 CNS): 37.6 µM
TGI (SNB-19 CNS): > 100 µM
GI50 (UACC-62 melanoma): 38.1 µM
TGI (UACC-62 melanoma): > 100 µM
GI50 (HT29 colon): 32.7 µM
TGI (HT29 colon): > 100 µM
GI50 (SF-268 CNS): 38.9 µM
TGI (SF-268 CNS): > 100 µM
GI50 (IGROV1 ovarian): 28 µM
TGI (IGROV1 ovarian): 71.7 µM
GI50 (SK-MEL-28 melanoma): 43.3 µM
TGI (SK-MEL-28 melanoma): > 100 µM
GI50 (NCI-H23 lung): 34.4 µM
TGI (NCI-H23 lung): > 100 µM
GI50 (MDA-MB-468 breast): 20 µM
TGI (MDA-MB-468 breast): 38.5 µM
GI50 (RXF 393 renal): 21.5 µM
TGI (RXF 393 renal): 58.6 µM
GI50 (OVCAR-5 ovarian): 35.2 µM
TGI (OVCAR-5 ovarian): > 100 µM
GI50 (OVCAR-4 ovarian): 30.4 µM
TGI (OVCAR-4 ovarian): 73 µM
GI50 (MOLT-4 leukemia): 14.8 µM
TGI (MOLT-4 leukemia): 28.2 µM
GI50 (RPMI-8226 leukemia): 13.6 µM
TGI (RPMI-8226 leukemia): 26.7 µM
GI50 (SNB-75 CNS): 28.4 µM
TGI (SNB-75 CNS): 91.2 µM
GI50 (HS 578T breast): 21 µM
TGI (HS 578T breast): 52.3 µM
GI50 (T-47D breast): 37 µM
TGI (T-47D breast): > 100 µM
GI50 (UO-31 renal): 32.5 µM
TGI (UO-31 renal): > 100 µM
GI50 (DU-145 prostate): 31.3 µM
TGI (DU-145 prostate): 90.7 µM
GI50 (COLO 205 colon): 37.9 µM
TGI (COLO 205 colon): > 100 µM
GI50 (SK-OV-3 ovarian): 35 µM
TGI (SK-OV-3 ovarian): 96.4 µM
GI50 (HOP-62 NSCLC): 27.2 µM
TGI (HOP-62 NSCLC): 91.7 µM
GI50 (NCI-H226 lung): 21 µM
TGI (NCI-H226 lung): 64.8 µM
GI50 (CAKI-1 renal): 36.1 µM
TGI (CAKI-1 renal): > 100 µM
GI50 (SK-MEL-5 melanoma): 20.7 µM
TGI (SK-MEL-5 melanoma): 37.3 µM
GI50 (LOX IMVI melanoma): 30.7 µM
TGI (LOX IMVI melanoma): 80.8 µM
GI50 (MDA-MB-231 breast): 47.9 µM
TGI (MDA-MB-231 breast): > 100 µM
GI50 (HCC-2998 colon): 24.8 µM
TGI (HCC-2998 colon): 54.4 µM
GI50 (MDA-MB-435 melanoma): 37.5 µM
TGI (MDA-MB-435 melanoma): > 100 µM
GI50 (SR leukemia): 15.9 µM
TGI (SR leukemia): 30 µM
GI50 (NCI-H522 lung): 28.1 µM
TGI (NCI-H522 lung): 70 µM
GI50 (SF-295 CNS): 21.4 µM
TGI (SF-295 CNS): 52 µM
GI50 (KM12 colon): 33.3 µM
TGI (KM12 colon): > 100 µM
GI50 (TK-10 renal): 51.4 µM
TGI (TK-10 renal): > 100 µM
